Consider 5 molecules from US9012456B2, “Compounds, pharmaceutical compositions and uses thereof” (Boehringer Ingelheim International GmbH, priority 2012, dated 2015).

SMILES strings stand for the structures.

For the test, the target named is T1, human GPR119 (Homo sapiens, UniProt Q8TDV5).
T1 construct: expressed in transfected cells
T1 sequence (Q8TDV5 1-335): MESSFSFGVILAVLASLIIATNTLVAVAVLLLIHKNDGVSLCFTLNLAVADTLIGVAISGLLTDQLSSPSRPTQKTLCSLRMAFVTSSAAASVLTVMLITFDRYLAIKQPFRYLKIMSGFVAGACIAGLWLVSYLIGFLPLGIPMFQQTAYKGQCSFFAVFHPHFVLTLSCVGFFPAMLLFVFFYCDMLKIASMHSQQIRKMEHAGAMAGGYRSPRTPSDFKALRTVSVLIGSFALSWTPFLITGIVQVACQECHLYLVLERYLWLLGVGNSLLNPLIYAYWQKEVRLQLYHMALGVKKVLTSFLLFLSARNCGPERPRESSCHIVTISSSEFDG
Briefly: AlphaScreen cAMP assay in Min-6/hGPR119 cells (activation of GPR119, stimulation of intracellular cAMP). The format is cell-based. To be noted: MIN6 cells stably transfected with human GPR119; 45 min incubation at room temperature; cAMP by AlphaScreen. Here is the method: The compounds of formula I according to the invention modulate the activity of the G-protein-coupled receptor GPR119. The effect of the compounds on the activation of GPR119 and on the stimulation of intracellular cAMP concentration is determined using the AlphaScreen cAMP Assay Kit (Cat. No. #6760625R) made by PerkinElmer.
MIN6 cells [Miyazaki J et al., Endocrinology. 1990 July; 127(1):126-32] are stably transfected with an expression vector for human GPR119 cDNA (Acc. No. NP_848566). Min-6/hGPR119 cells are cultured in DMEM, 10% FBS, 50 μM β-mercaptoethanol, 0.3 mg/mL Geniticin, 2 mM GlutaMAX at 37° C., 5% CO2. For the assay, the cells are seeded in Optiplates (white, 384-well, 160W-barcoded, TC, sterile with lid, Cat. No. #6007688 (Perkin Elmer); 10000 cells/well; 50 μL). The plates covered with lids are then incubated for 24 hours at 37° C., 5% CO2. After the medium is aspirated from the wells completely, 10 μl of the test compound are added, the compounds are diluted using stimulating buffer (140 mM NaCl, 3.6 mM KCl, 0.5 mM NaH2PO4, 0.5 mM MgSO4, 1.5 mM CaCl2, 10 mM Hepes, 5 mM NaHCO3; pH 7.4. 0.5 mM IBMX and 0.1% BSA, the final DMSO concentration is 1%). After 45 minutes incubation at room temperature (approx. 20° C.), the cAMP concentrations are determined using the AlphaScreen cAMP Assay Kit (Cat. No. #6760625R from PerkinElmer).
(Alpha assays give light when donor and acceptor beads are brought close together.)
Consider `CCNC(=O)c1ccc(-c2cc3cc(C4CCN(C(=O)OC(C)(C)C)CC4)oc3cn2)cc1` [Example 6, 4-[5-(4-Ethylcarbamoyl-phenyl)-furo[2,3-c]pyridin-2-yl]-piperidine-1-carboxylic acid tert-butyl ester], for which the EC50 (in general, the concentration giving half of the maximal effect) amounted to 45 nM.

The molecule `CC(C)(C)OC(=O)N1CCC(c2cc3cc(-c4ccc(C#N)cc4F)ncc3o2)CC1` [Example 8, 4-[5-(4-Cyano-2-fluoro-phenyl)-furo[2,3-c]pyridin-2-yl]-piperidine-1-carboxylic acid tert-butyl ester] gave an EC50 of 281 nM.

For `CC(C)(C)OC(=O)N1CCC(c2cc3cc(-c4ccc(S(C)(=O)=O)cc4)ncc3o2)CC1` [Example 1, 4-[5-(4-Methanesulfonyl-phenyl)-furo[2,3-c]pyridin-2-yl]-piperidine-1-carboxylic acid tert-butyl ester], the concentration for a half-maximal effect (EC50) amounted to 58 nM. Compared with the last molecule, the EC50 is about 4.8-fold lower.

For the molecule `CC(C)(C)OC(=O)N1CCC(c2cc3cc(-c4ccc(S(C)(=O)=O)c(F)c4)ncc3o2)CC1` [Example 2, 4-[5-(3-Fluoro-4-methanesulfonyl-phenyl)-furo[2,3-c]pyridin-2-yl]-piperidine-1-carboxylic acid tert-butyl ester], the concentration giving a half-maximal response (EC50) is 62 nM.

As for `CC(C)(C)OC(=O)N1CCC(c2cc3cc(C4=CCN(S(C)(=O)=O)CC4)ncc3o2)CC1` [Example 14, 4-[5-(1-Methanesulfonyl-1,2,3,6-tetrahydro-pyridin-4-yl)-furo[2,3-c]pyridin-2-yl]-piperidine-1-carboxylic acid tert-butyl ester], the EC50 came to 9 nM.
